Laboratory results: US10875799B2, “System and method for generation of point of use reactive oxygen species” (Clean Chemistry, Inc., priority 2012, dated 2020)

Legend:
[1] = Methylene blue (MB) dye oxidation / color removal test; settings: hydrogen peroxide alone, after several days
[2] = cited from earlier work

| Compound | effect on methylene blue [1] | pKa [2] |
| --- | --- | --- |
| OO [hydrogen peroxide] | no visible effect | 11.6 |
| CC(=O)OO [peroxyacetic acid] | – | 8.3 |
| [O]O [superoxide] | – | 4.8 |
